The results in this text go back to ChEMBL document CHEMBL1126996, “Structure-activity relationships of 6-substituted benzopyran-4-carbothioamide potassium channel openers” (Bioorg Med Chem Lett, 1993).

Assay [1] is filed under the species Rattus norvegicus. In words: Negative logarithm of the molar concentration required to relax rat aorta precontracted with 30 mM KCl by 50% of IA. The assay is classed as functional.
The species named for assay [2] is Rattus norvegicus. In words: Percent of intrinsic activity for vasorelaxant effect. It is filed as functional.

`C/N=C(/S)C1=CC(C)(C)Oc2ccc(Cl)cc21` had an EC50 in assay [1] of 37.2 nM. In assay [2], this compound displayed an IA of 73.1%.
For the compound `C/N=C(/S)C1=CC(C)(C)Oc2ccc(C(F)(F)C(F)(F)F)cc21`, the EC50 in assay [1] is 12.6 nM. Also, the IA in assay [2] is 55.4%.
The compound `C/N=C(/S)C1=CC(C)(C)Oc2ccc([N+](=O)[O-])cc21` showed a concentration for a half-maximal effect (EC50) in assay [1] of 1.35 nM. Moreover, the IA in assay [2] is 63.5%.
`C/N=C(/S)C1=CC(C)(C)Oc2ccc(S(C)(=O)=O)cc21` had an EC50 in assay [1] of 457 nM. The compound also registered an IA in assay [2] of 69.8%.
The corresponding values for `CCc1ccc2c(c1)C(/C(S)=N\C)=CC(C)(C)O2` are 324 nM and 78.7%.
The corresponding values for `C/N=C(/S)C1=CC(C)(C)Oc2ccccc21` are 4270 nM and 89.3%.
Regarding `C/N=C(/S)C1=CC(C)(C)Oc2ccc(OC(F)(F)F)cc21`, the midpoint of the response in assay [1], the EC50, lay at 4.07 nM. This compound also displayed an IA in assay [2] of 76.1%.
Regarding `C/N=C(/S)C1=CC(C)(C)Oc2ccc(Br)cc21`, the concentration for a half-maximal effect (EC50) in assay [1] was 9.33 nM. Moreover, the IA in assay [2] is 67.5%.
`C/N=C(/S)C1=CC(C)(C)Oc2ccc(C#N)cc21` showed a half-maximal effective concentration (EC50) in assay [1] of 24.5 nM. The IA in assay [2] came out at 89%.
The compound `C/N=C(/S)C1=CC(C)(C)Oc2ccc(C(F)(F)F)cc21` had an EC50 in assay [1] of 2.04 nM. For the same compound, the IA in assay [2] is 73%.
`C/N=C(/S)C1=CC(C)(C)Oc2ccc(S(=O)(=O)c3ccccc3)cc21` showed a concentration for a half-maximal effect (EC50) in assay [1] of 19.1 nM. The same compound returned an IA in assay [2] of 73.7%.
Regarding `C/N=C(/S)C1=CC(C)(C)Oc2ccc(OC(C)=O)cc21`, in assay [1], a half-maximal response (EC50) required 95.5 nM. Further, the IA in assay [2] was determined as 76.1%.
Compound `CNC(=S)C1=CC(C)(C)Oc2ccc(OC)cc21` showed an EC50 in assay [1] of 417 nM. Also, the IA in assay [2] is 61.5%.
In the case of `CC1(C)Oc2ccc(C#N)cc2[C@@H](N2CCCC2=O)[C@@H]1O` [CROMAKALIM], it took 170 nM to reach a half-maximal effect in assay [1] (EC50). The compound also came in with an IA in assay [2] of 74.7%.
